How the values were obtained:
[1] = Effect of amino acids on sincalide recovery and related impurities; assay type: physicochemical; conditions: for improvement in sincalide recovery vs control without lysine: lyophilized formulations
Experimental: Experiments were conducted to evaluate several amino acids as potential stabilizers of sincalide, including the non-polar (hydrophobic) methionine residue, aspartic acid and glutamic acid, the polar glycine and cysteine residues, and the basic lysine and arginine amino acids. […]
For comparison to the non-polar amino acid methionine as a potential processing stabilizer, polar amino acids such as glycine and cysteine were also evaluated. Formulations containing these amino acids were exposed to air in open vials and compared to product in closed vials. […] Table 23 presents the sincalide recoveries for experimental formulations containing variable concentrations of methionine, cysteine or glycine. […]

[2] = Effect of antioxidants on sincalide formulation stability (HPLC); conditions: for % Sincalide / % Total Sincalide-Related Impurities: antioxidant 10 μg/mL; for effect of antioxidant on sincalide stability (in words): antioxidant 10 μg/mL in reconstituted sincalide formulation, over 15 hours
Experimental: An experiment was performed to evaluate the addition of antioxidants as stabilizing agents to prevent sincalide oxidation in formulations of sincalide (formulations for Example 4 contained 85 mg/mL mannitol, 0.005 mg/mL TWEEN® 20, 2.75 mg/mL KH2PO4, 1.0 mg/mL DTPA, 2.0 mg/mL methionine, 7.5 mg/mL lysine, 15 mg/mL arginine, 0.0025 mg/mL sincalide (Bulk formulation), except placebos which contained no sincalide.) The formation of sincalide methionine (Met 3 or Met 6) monosulfoxides, desulfated sincalide and unknown degradants was investigated. The effectiveness of sodium metabisulfite, ascorbic acid, cysteine, glutathione, sodium sulfate, benzalkonium chloride, and benzethonium chloride in inhibiting the degradation of sincalide in terms of their effect on sincalide recovery and sincalide-related impurities, was evaluated by HPLC.
The effect of various antioxidants on the stabilization of sincalide was evaluated on open and sealed sincalide formulations over 15 hours. The antioxidants were separately added at a concentration of 10 μg/mL to water-reconstituted lyophilized sincalide formulations containing all formulation ingredients except antioxidant. Spiked and unspiked solutions were pooled, subdivided, and either exposed to or protected from air over 15 hours. The sincalide and total sincalide-related impurities were monitored by reversed-phase HPLC with gradient elution and UV detection at 215 nm to compare the effectiveness of the antioxidants.
To optimize the level of sodium metabisulfite in the formulation, lyophilized sincalide formulations were prepared containing four levels of sodium metabisulfite (0, 10, 30, and 60 μg/vial), as summarized in Table 13. Samples at each concentration were maintained under unstressed and stressed (65 ° C., 64 hours) storage conditions, and were subsequently assayed by HPLC. The “% sincalide” was determined, and the “% (Met 6) monosulfoxide” (tR≈19.7 min.) was monitored as an indication of sincalide oxidation.
Another experiment was conducted under longer-term accelerated storage conditions utilizing a sincalide formulation with the optimized concentration (40 μg/vial) of sodium metabisulfite to confirm the protective effect on the degradation of sincalide. Sincalide lyophilized formulations with and without the antioxidant from the same batch were heat-stressed at 40° C. and 60° C. for 6 weeks. Also, formulations without sincalide from the same batch were heat-stressed at 40° C. for 8 months.

[3] = Effect of surfactants on sincalide recovery (RP-HPLC); assay type: physicochemical; conditions: for sincalide recoveries: formulations containing trace levels (2.5-7.5 μg/mL) of the surfactant
Source text: During the preliminary developmental studies of a new formulation that consisted of bulking agent/tonicity adjuster, buffer, salt, chelator, and sincalide, it was observed by HPLC analysis that the recovery of the active pharmaceutical ingredient, sincalide, in the bulk solution was sensitive to standing open to air. […] Although to some extent, this sincalide decrease can be accounted for by an increase in the presence of sincalide mono- and disulfoxide degradants, these represent only a very minor percentage of the decreases noted. Thus the decrease in recovery is thought to be attributed to either adsorption/denaturing or air/liquid interface effects. To minimize sincalide degradation associated with surface adsorption, surfactants are added as formulation excipients in bulk and lyophilized formulations of sincalide.
Sincalide formulations consisting of a bulking agent/tonicity adjuster (D-mannitol), buffer (mono- and dibasic potassium phosphate), salt (sodium/potassium chloride) for tonicity, chelator (pentetic acid), and active ingredient (sincalide) were prepared using varying concentrations of the nonionic surfactant, polysorbate 80 (TWEEN® 80). Bulk solution and reconstituted lyophilized samples were either stoppered immediately or left unstoppered for 17 hours, and were assayed for sincalide recovery by reversed-phase gradient elution HPLC at 215 nm. […]
An additional experiment was performed to confirm the effect of the concentration of TWEEN® 20 in terms of sincalide recovery in both air exposed and sealed bulk formulation. Sincalide recovery, determined for bulk formulation (75.0 mg/mL D-mannitol, 6.0 mg/mL KCl, 3.25 mg/mL KH2PO4, 1.0 mg/mL DTPA, 0.0025 mg/mL sincalide) containing varying trace levels of TWEEN® 20 stored in open or closed vials using reversed-phase gradient elution HPLC, is shown in Table 10. […]

[4] = Table 23, bulk formulation, amino acid 2.0 mg/mL Bulk
[5] = Table 23, bulk formulation, amino acid 2.5 mg/mL Bulk
[6] = bulk formulation, L-Methionine 0.00 mg/mL Bulk
[7] = bulk formulation, L-Methionine 0.025 mg/mL Bulk
[8] = bulk formulation, L-Methionine 0.50 mg/mL Bulk
[9] = bulk formulation, L-Methionine 2.0 mg/mL Bulk

Molecule: NCCCCC(N)C(=O)O (racemic) [DL-Lysine]
- improvement in sincalide recovery vs control without lysine ([1]; 3 weeks storage at 40° C.): 50%
- improvement in sincalide recovery vs control without lysine ([1]; 5 weeks storage at 40° C.): 75%

Molecule: O=C1O[C@H]([C@@H](O)CO)C(O)=C1O [Ascorbic Acid]
- % Sincalide ([2]; Open, 1 h): 98.0%
- % Total Sincalide-Related Impurities ([2]; Open, 1 h): 2.00%
- % Sincalide ([2]; Open, 8 h): 98.0%
- % Total Sincalide-Related Impurities ([2]; Open, 8 h): 2.01%
- % Sincalide ([2]; Open, 15 h): 97.8%
- % Total Sincalide-Related Impurities ([2]; Open, 15 h): 2.16%
- % Sincalide ([2]; Sealed, 0 h): 98.1%
- % Total Sincalide-Related Impurities ([2]; Sealed, 0 h): 1.95%
- % Sincalide ([2]; Sealed, 7 h): 98.0%
- % Total Sincalide-Related Impurities ([2]; Sealed, 7 h): 2.05%
- % Sincalide ([2]; Sealed, 14 h): 97.8%
- % Total Sincalide-Related Impurities ([2]; Sealed, 14 h): 2.25%

Molecule: CC(C)(C)CC(C)(C)c1ccc(OCCOCC[N+](C)(C)Cc2ccccc2)cc1 [Benzethonium Chloride]
- effect of antioxidant on sincalide stability (in words) [2]: significant destabilizing effect
- % Sincalide ([2]; Open, 1 h): 92.1%
- % Total Sincalide-Related Impurities ([2]; Open, 1 h): 7.93%
- % Sincalide ([2]; Open, 8 h): 88.0%
- % Total Sincalide-Related Impurities ([2]; Open, 8 h): 12.0%
- % Sincalide ([2]; Open, 15 h): 92.6%
- % Total Sincalide-Related Impurities ([2]; Open, 15 h): 7.36%
- % Sincalide ([2]; Sealed, 0 h): 97.9%
- % Total Sincalide-Related Impurities ([2]; Sealed, 0 h): 2.13%
- % Sincalide ([2]; Sealed, 7 h): 98.0%
- % Total Sincalide-Related Impurities ([2]; Sealed, 7 h): 1.98%
- % Sincalide ([2]; Sealed, 14 h): 98.0%
- % Total Sincalide-Related Impurities ([2]; Sealed, 14 h): 1.96%

Molecule: N[C@@H](CS)C(=O)O [Cysteine]
- % Sincalide ([2]; Open, 1 h): 97.8%
- % Total Sincalide-Related Impurities ([2]; Open, 1 h): 2.20%
- % Sincalide ([2]; Open, 8 h): 97.7%
- % Total Sincalide-Related Impurities ([2]; Open, 8 h): 2.32%
- % Sincalide ([2]; Open, 15 h): 98.0%
- % Total Sincalide-Related Impurities ([2]; Open, 15 h): 2.05%
- % Sincalide ([2]; Sealed, 0 h): 98.2%
- % Total Sincalide-Related Impurities ([2]; Sealed, 0 h): 1.85%
- % Sincalide ([2]; Sealed, 7 h): 98.1%
- % Total Sincalide-Related Impurities ([2]; Sealed, 7 h): 1.87%
- % Sincalide ([2]; Sealed, 14 h): 98.1%
- % Total Sincalide-Related Impurities ([2]; Sealed, 14 h): 1.91%

Molecule: N[C@@H](CCC(=O)N[C@@H](CS)C(=O)NCC(=O)O)C(=O)O [Glutathione]
- % Sincalide ([2]; Open, 1 h): 98.1%
- % Total Sincalide-Related Impurities ([2]; Open, 1 h): 1.94%
- % Sincalide ([2]; Open, 8 h): 98.2%
- % Total Sincalide-Related Impurities ([2]; Open, 8 h): 1.85%
- % Sincalide ([2]; Open, 15 h): 97.9%
- % Total Sincalide-Related Impurities ([2]; Open, 15 h): 2.13%
- % Sincalide ([2]; Sealed, 0 h): 98.1%
- % Total Sincalide-Related Impurities ([2]; Sealed, 0 h): 1.90%
- % Sincalide ([2]; Sealed, 7 h): 98.3%
- % Total Sincalide-Related Impurities ([2]; Sealed, 7 h): 1.74%
- % Sincalide ([2]; Sealed, 14 h): 98.2%
- % Total Sincalide-Related Impurities ([2]; Sealed, 14 h): 1.82%

Molecule: N[C@@H](CS)C(=O)O [L-Cysteine]
- Related impurities (%), Closed [1, 4]: 1.0%
- Related impurities (%), Open [1, 4]: 31.0%

Molecule: NCC(=O)O [L-Glycine]
- Related impurities (%), Closed [1, 4]: 1.1%
- Related impurities (%), Open [1, 4]: 51.1%
- Related impurities (%), Closed [1, 5]: 1.6%
- Related impurities (%), Open [1, 5]: 44.9%

Molecule: CSCC[C@H](N)C(=O)O [L-Methionine]
- Related impurities (%), Closed [1, 4]: 0.7%
- Related impurities (%), Open [1, 4]: 6.4%
- Related impurities (%), Closed [1, 5]: 0.7%
- Related impurities (%), Open [1, 5]: 10.5%
- Related impurities (%), Closed [1, 6]: 1.3%
- Related impurities (%), Open [1, 6]: 52.7%
- Related impurities (%), Closed [1, 7]: 1.0%
- Related impurities (%), Open [1, 7]: 35.9%
- Related impurities (%), Closed [1, 8]: 0.8%
- Related impurities (%), Open [1, 8]: 19.3%
- Related impurities (%), Closed [1, 9]: 0.7%
- Related impurities (%), Open [1, 9]: 15.0%

Molecule: O=S([O-])S(=O)(=O)[O-].[Na+].[Na+] [Sodium Metabisulfite]
- % Sincalide ([2]; Open, 1 h): 98.2%
- % Total Sincalide-Related Impurities ([2]; Open, 1 h): 1.76%
- % Sincalide ([2]; Open, 8 h): 98.3%
- % Total Sincalide-Related Impurities ([2]; Open, 8 h): 1.69%
- % Sincalide ([2]; Open, 15 h): 98.2%
- % Total Sincalide-Related Impurities ([2]; Open, 15 h): 1.79%
- % Sincalide ([2]; Sealed, 0 h): 98.3%
- % Total Sincalide-Related Impurities ([2]; Sealed, 0 h): 1.67%
- % Sincalide ([2]; Sealed, 7 h): 98.3%
- % Total Sincalide-Related Impurities ([2]; Sealed, 7 h): 1.66%
- % Sincalide ([2]; Sealed, 14 h): 98.3%
- % Total Sincalide-Related Impurities ([2]; Sealed, 14 h): 1.73%

Molecule: O=S(=O)([O-])[O-].[Na+].[Na+] [Sodium Sulfate]
- effect of antioxidant on sincalide stability (in words) [2]: essentially equivalent to the control formulation
- % Sincalide ([2]; Open, 1 h): 98.3%
- % Total Sincalide-Related Impurities ([2]; Open, 1 h): 1.70%
- % Sincalide ([2]; Open, 8 h): 98.2%
- % Total Sincalide-Related Impurities ([2]; Open, 8 h): 1.78%
- % Sincalide ([2]; Open, 15 h): 98.1%
- % Total Sincalide-Related Impurities ([2]; Open, 15 h): 1.92%
- % Sincalide ([2]; Sealed, 0 h): 98.2%
- % Total Sincalide-Related Impurities ([2]; Sealed, 0 h): 1.76%
- % Sincalide ([2]; Sealed, 7 h): 98.1%
- % Total Sincalide-Related Impurities ([2]; Sealed, 7 h): 1.90%
- % Sincalide ([2]; Sealed, 14 h): 98.2%
- % Total Sincalide-Related Impurities ([2]; Sealed, 14 h): 1.81%

Molecule: Benzalkonium Chloride
- % Sincalide ([2]; Open, 1 h): 82.7%
- % Total Sincalide-Related Impurities ([2]; Open, 1 h): 17.3%
- % Sincalide ([2]; Open, 8 h): 88.4%
- % Total Sincalide-Related Impurities ([2]; Open, 8 h): 11.6%
- % Sincalide ([2]; Open, 15 h): 82.9%
- % Total Sincalide-Related Impurities ([2]; Open, 15 h): 17.1%
- % Sincalide ([2]; Sealed, 0 h): 97.8%
- % Total Sincalide-Related Impurities ([2]; Sealed, 0 h): 2.21%
- % Sincalide ([2]; Sealed, 7 h): 97.7%
- % Total Sincalide-Related Impurities ([2]; Sealed, 7 h): 2.34%
- % Sincalide ([2]; Sealed, 14 h): 97.4%
- % Total Sincalide-Related Impurities ([2]; Sealed, 14 h): 2.58%

Molecule: polyoxyethylene sorbitan monolaurate [TWEEN ® 20]
- foaming in the reconstituted product upon vigorous stirring ([3]; 2-mL filled vials, TWEEN 20 concentration of 5 μg/mL): slight foaming
- sincalide recoveries [3]: 98-102%

Molecule: polysorbate 80 [TWEEN ® 80]
- sincalide recoveries [3]: 95-98%
